Key:
PC-3 = assay: Growth inhibition of human PC3 cells assessed as cell growth at 1 uM incubated for 48 hrs by sulforhodamine B assay relative to control; assay type: functional; conditions: PC-3, 48 h, read-out: Activity
MOLT-4 [1] = assay: Growth inhibition of human MOLT4 cells assessed as cell growth at 100 uM incubated for 48 hrs by sulforhodamine B assay relative to control; assay type: functional; conditions: MOLT-4, 48 h, read-out: Activity
SK-MEL-28 = assay: Growth inhibition of human SK-MEL-28 cells incubated for 48 hrs by sulforhodamine B assay; assay type: functional, cell-based; conditions: SK-MEL-28, 48 h
MOLT-4 [2] = assay: Growth inhibition of human MOLT4 cells assessed as cell growth at 0.1 uM incubated for 48 hrs by sulforhodamine B assay relative to control; assay type: functional; conditions: MOLT-4, 48 h, read-out: Activity
HT-29 [3] = assay: Growth inhibition of human HT-29 cells assessed as cell growth at 0.01 uM incubated for 48 hrs by sulforhodamine B assay relative to control; assay type: functional; conditions: HT-29, 48 h, read-out: Activity
SR = assay: Growth inhibition of human SR cells assessed as cell growth at 100 uM incubated for 48 hrs by sulforhodamine B assay relative to control; assay type: functional; conditions: read-out: Activity
HL-60(TB) [4] = assay: Growth inhibition of human HL-60(TB) cells assessed as cell growth at 1 uM incubated for 48 hrs by sulforhodamine B assay relative to control; assay type: functional; conditions: HL-60, 48 h, read-out: Activity
MDA-MB-231 = assay: Growth inhibition of human MDA-MB-231 cells incubated for 48 hrs by sulforhodamine B assay; assay type: functional, cell-based; conditions: MDA-MB-231, 48 h
HT-29 [5] = assay: Growth inhibition of human HT-29 cells assessed as cell growth at 1 uM incubated for 48 hrs by sulforhodamine B assay relative to control; assay type: functional; conditions: HT-29, 48 h, read-out: Activity
Malme-3M = assay: Growth inhibition of human MALME-3M cells assessed as cell growth at 0.01 uM incubated for 48 hrs by sulforhodamine B assay relative to control; assay type: functional; conditions: read-out: Activity
KM12 = assay: Growth inhibition of human KM12 cells incubated for 48 hrs by sulforhodamine B assay; assay type: functional, cell-based; conditions: KM12, 48 h
HL-60(TB) [6] = assay: Growth inhibition of human HL-60(TB) cells assessed as cell growth at 100 uM incubated for 48 hrs by sulforhodamine B assay relative to control; assay type: functional; conditions: HL-60, 48 h, read-out: Activity
CAKI-1 = assay: Growth inhibition of human Caki1 cells assessed as cell growth at 0.01 uM incubated for 48 hrs by sulforhodamine B assay relative to control; assay type: functional; conditions: CAKI-1, 48 h, read-out: Activity
U-251 = assay: Growth inhibition of human U251 cells assessed as cell growth at 0.1 uM incubated for 48 hrs by sulforhodamine B assay relative to control; assay type: functional; conditions: U-251, 48 h, read-out: Activity
NCI/ADR-RES = assay: Growth inhibition of human NCI/ADR-RES cells assessed as cell growth at 100 uM incubated for 48 hrs by sulforhodamine B assay relative to control; assay type: functional; conditions: read-out: Activity
UO-31 = assay: Growth inhibition of human UO31 cells incubated for 48 hrs by sulforhodamine B assay; assay type: functional, cell-based; conditions: UO-31, 48 h
MDA-MB-468 = assay: Growth inhibition of human MDA-MB-468 cells assessed as cell growth at 1 uM incubated for 48 hrs by sulforhodamine B assay relative to control; assay type: functional; conditions: MDA-MB-468, 48 h, read-out: Activity
IGROV-1 = assay: Growth inhibition of human IGROV1 cells assessed as cell growth at 0.1 uM incubated for 48 hrs by sulforhodamine B assay relative to control; assay type: functional; conditions: IGROV-1, 48 h, read-out: Activity
MCF7 = assay: Growth inhibition of human MCF7 cells assessed as cell growth at 1 uM incubated for 48 hrs by sulforhodamine B assay relative to control; assay type: functional; conditions: MCF7, 48 h, read-out: Activity
T47D = assay: Growth inhibition of human T47D cells incubated for 48 hrs by sulforhodamine B assay; assay type: functional, cell-based
UACC-257 = assay: Growth inhibition of human UACC257 cells incubated for 48 hrs by sulforhodamine B assay; assay type: functional, cell-based; conditions: UACC-257, 48 h
A549 = assay: Growth inhibition of human A549/ATCC cells incubated for 48 hrs by sulforhodamine B assay; assay type: functional, cell-based; conditions: A549, 48 h
K562 = assay: Growth inhibition of human K562 cells assessed as cell growth at 0.01 uM incubated for 48 hrs by sulforhodamine B assay relative to control; assay type: functional; conditions: K562, 48 h, read-out: Activity
CCRF-CEM = assay: Growth inhibition of human CCRF-CEM cells assessed as cell growth at 100 uM incubated for 48 hrs by sulforhodamine B assay relative to control; assay type: functional; conditions: read-out: Activity
HL-60(TB) [7] = assay: Growth inhibition of human HL-60(TB) cells assessed as cell growth at 0.01 uM incubated for 48 hrs by sulforhodamine B assay relative to control; assay type: functional; conditions: HL-60, 48 h, read-out: Activity
SNB-75 = assay: Growth inhibition of human SNB75 cells incubated for 48 hrs by sulforhodamine B assay; assay type: functional, cell-based; conditions: SNB-75, 48 h
RXF 393 = assay: Growth inhibition of human RXF393 cells assessed as cell growth at 0.01 uM incubated for 48 hrs by sulforhodamine B assay relative to control; assay type: functional; conditions: RXF 393, 48 h, read-out: Activity
M14 = assay: Growth inhibition of human M14 cells assessed as cell growth at 1 uM incubated for 48 hrs by sulforhodamine B assay relative to control; assay type: functional; conditions: M14, 48 h, read-out: Activity
[8] = read-out: LC50 (the source's name)
[9] = read-out: pLC50 (the source's name) (converted)

## O=C(Nc1cccc(-n2cc(-c3ccncc3)c(-c3cc(O)cc(Cl)c3)n2)c1)c1ccc(N2CCOCC2)c(C(F)(F)F)c1
PC-3
  growth at 1 µM: 51%
MOLT-4 [1]
  growth at 100 µM: -20%
SK-MEL-28; read-out: GI50
  GI50: 0.759 µM
SK-MEL-28; [8]
  CC50: > 100 µM
SK-MEL-28; read-out: TGI
  TGI: 32.7 µM
SK-MEL-28; read-out: pGI50 (converted)
  GI50: 0.759 µM
SK-MEL-28; [9]
  CC50: > 100 µM
SK-MEL-28; read-out: pTGI (converted)
  TGI: 3.24 µM
MOLT-4 [2]
  growth at 0.1 µM: 97%
HT-29 [3]
  growth at 0.01 µM: 93%
SR
  growth at 100 µM: -25%
HL-60(TB) [4]
  growth at 1 µM: 44%
MDA-MB-231; read-out: GI50
  GI50: 0.327 µM
MDA-MB-231; [8]
  CC50: 27 µM
MDA-MB-231; read-out: TGI
  TGI: 16.6 µM
MDA-MB-231; read-out: pGI50 (converted)
  GI50: 0.324 µM
MDA-MB-231; [9]
  CC50: 26.9 µM
MDA-MB-231; read-out: pTGI (converted)
  TGI: 1.66 µM
HT-29 [5]
  growth at 1 µM: 94%
Malme-3M
  growth at 0.01 µM: 58%
KM12; read-out: GI50
  GI50: 1.21 µM
KM12; [8]
  CC50: > 100 µM
KM12; read-out: TGI
  TGI: > 100 µM
KM12; read-out: pGI50 (converted)
  GI50: 1.2 µM
KM12; [9]
  CC50: > 100 µM
KM12; read-out: pTGI (converted)
  TGI: > 100 µM
HL-60(TB) [6]
  growth at 100 µM: -48%
CAKI-1
  growth at 0.01 µM: 98%
U-251
  growth at 0.1 µM: 96%
NCI/ADR-RES
  growth at 100 µM: 25%
UO-31
  IC50: 1.41 µM
UO-31; read-out: GI50
  GI50: 1.41 µM
UO-31; [8]
  CC50: > 100 µM
UO-31; read-out: TGI
  TGI: 15.5 µM
UO-31; read-out: pGI50 (converted)
  GI50: 1.12 µM
UO-31; [9]
  CC50: > 100 µM
UO-31; read-out: pTGI (converted)
  TGI: 15.5 µM
MDA-MB-468
  growth at 1 µM: 75%
IGROV-1
  growth at 0.1 µM: 103%
MCF7
  growth at 1 µM: 82%
T47D; read-out: GI50
  GI50: 3.81 µM
T47D; [8]
  CC50: > 100 µM
T47D; read-out: TGI
  TGI: > 100 µM
T47D; read-out: pGI50 (converted)
  GI50: 3.8 µM
T47D; [9]
  CC50: > 100 µM
T47D; read-out: pTGI (converted)
  TGI: > 100 µM
UACC-257; read-out: GI50
  GI50: 2.36 µM
UACC-257; [8]
  CC50: > 100 µM
UACC-257; read-out: TGI
  TGI: 84 µM
UACC-257; read-out: pGI50 (converted)
  GI50: 2.34 µM
UACC-257; [9]
  CC50: > 100 µM
UACC-257; read-out: pTGI (converted)
  TGI: 8.51 µM
A549
  IC50: 1.64 µM
A549; read-out: GI50
  GI50: 1.54 µM
A549; [8]
  CC50: > 100 µM
A549; read-out: TGI
  TGI: 18 µM
A549; read-out: pGI50 (converted)
  GI50: 1.66 µM
A549; [9]
  CC50: > 100 µM
A549; read-out: pTGI (converted)
  TGI: 18.2 µM
K562
  growth at 0.01 µM: 113%
CCRF-CEM
  growth at 100 µM: 2%
HL-60(TB) [7]
  growth at 0.01 µM: 92%
SNB-75; read-out: GI50
  GI50: 0.772 µM
SNB-75; [8]
  CC50: > 100 µM
SNB-75; read-out: TGI
  TGI: > 100 µM
SNB-75; read-out: pGI50 (converted)
  GI50: 0.724 µM
SNB-75; [9]
  CC50: > 100 µM
SNB-75; read-out: pTGI (converted)
  TGI: > 100 µM
RXF 393
  growth at 0.01 µM: 91%
M14
  growth at 1 µM: 45%

From ChEMBL document CHEMBL4308841, “Synthesis, in vitro antiproliferative activity, and kinase inhibitory effects of pyrazole-containing diarylureas and diarylamides” (Eur J Med Chem, 2018)
